Data taken from ChEMBL document CHEMBL5046316, “Structure-Based Optimization of a Fragment-like TLR8 Binding Screening Hit to an In Vivo Efficacious TLR7/8 Antagonist” (ACS Med Chem Lett, 2022).

Assays:
[1] = Dissociation constant, pKa of the compound by UV spectrometric titration method; assay type: physicochemical
[2] = molecular target: Voltage-gated inwardly rectifying potassium channel KCNH2 (Homo sapiens, UniProt Q12809); test: Inhibition of human ERG; assay type: toxicity
[3] = Dose normalized AUC in Balb/c mouse at 10 mg/kg, po and 1 mg/kg,iv administered as cassette dose measured upto 24 hrs by LC/MS/MS analysis; assay type: ADME, organism-based; design: dose 10 mg/kg, time <=24; settings: in vivo
[4] = Oral bioavailability in Balb/c mouse at 10 mg/kg administered as cassette dose measured upto 24 hrs by LC/MS/MS analysis; assay type: ADME, organism-based; settings: in vivo
[5] = Clearance in Balb/c mouse at 10 mg/kg, po or 1mg/kg, iv administered as cassette dose measured upto 24 hrs by LC/MS/MS analysis; assay type: ADME, organism-based; settings: in vivo
[6] = MRT in Balb/c mouse at 10 mg/kg, po or 1 mg/kg, iv administered as cassette dose measured upto 24 hrs by LC/MS/MS analysis; assay type: ADME, organism-based; settings: in vivo
Toll-like receptor 7 [7] = molecular target: T1, Toll-like receptor 7 (Homo sapiens, UniProt Q9NYK1); test: Antagonist activity at human TLR7 expressed in human PBMC cells assessed as inhibition of ssRNA stimulated IFNalpha level preincubated for 30 mins followed by stimulation and measured after 20 hrs by AlphaLISA method; assay type: cell-based
T1 sequence (Q9NYK1 whole entry): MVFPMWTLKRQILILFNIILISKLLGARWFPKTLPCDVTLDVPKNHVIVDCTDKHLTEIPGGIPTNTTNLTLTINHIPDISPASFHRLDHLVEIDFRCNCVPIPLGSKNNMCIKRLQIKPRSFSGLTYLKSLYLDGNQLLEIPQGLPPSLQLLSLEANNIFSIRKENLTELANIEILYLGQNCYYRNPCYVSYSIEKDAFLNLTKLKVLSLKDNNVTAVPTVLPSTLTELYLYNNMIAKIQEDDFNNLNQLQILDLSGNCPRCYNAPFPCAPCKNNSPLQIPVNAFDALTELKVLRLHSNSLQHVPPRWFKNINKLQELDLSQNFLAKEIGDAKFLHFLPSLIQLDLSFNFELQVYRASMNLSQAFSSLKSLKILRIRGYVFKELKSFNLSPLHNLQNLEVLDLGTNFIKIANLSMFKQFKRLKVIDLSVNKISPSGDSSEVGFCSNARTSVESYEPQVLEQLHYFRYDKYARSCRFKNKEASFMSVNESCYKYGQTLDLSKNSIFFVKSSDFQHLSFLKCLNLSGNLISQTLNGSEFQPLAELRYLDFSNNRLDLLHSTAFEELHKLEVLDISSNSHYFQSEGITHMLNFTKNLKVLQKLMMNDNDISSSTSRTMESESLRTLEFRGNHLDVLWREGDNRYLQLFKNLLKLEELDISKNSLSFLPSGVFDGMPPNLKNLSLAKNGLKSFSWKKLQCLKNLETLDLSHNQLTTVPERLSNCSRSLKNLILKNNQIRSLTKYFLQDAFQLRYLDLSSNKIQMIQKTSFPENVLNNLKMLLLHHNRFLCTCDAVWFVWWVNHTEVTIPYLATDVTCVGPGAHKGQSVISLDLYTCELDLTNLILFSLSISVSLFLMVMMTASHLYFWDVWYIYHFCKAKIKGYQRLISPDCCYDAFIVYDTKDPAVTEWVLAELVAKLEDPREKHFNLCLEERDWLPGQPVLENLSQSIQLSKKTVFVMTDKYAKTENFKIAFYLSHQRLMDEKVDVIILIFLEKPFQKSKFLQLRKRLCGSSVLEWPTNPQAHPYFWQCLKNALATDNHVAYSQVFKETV

Toll-like receptor 4 = Toll-like receptor 4 (Homo sapiens, UniProt O00206); test: Antagonist activity at human TLR4 expressed in human PBMC cells assessed as inhibition of LPS stimulated TNF level preincubated for 30 mins followed by stimulation and measured after 20 hrs by multiplate reader assay; assay type: cell-based
Sequence of Toll-like receptor 4 (O00206 whole entry): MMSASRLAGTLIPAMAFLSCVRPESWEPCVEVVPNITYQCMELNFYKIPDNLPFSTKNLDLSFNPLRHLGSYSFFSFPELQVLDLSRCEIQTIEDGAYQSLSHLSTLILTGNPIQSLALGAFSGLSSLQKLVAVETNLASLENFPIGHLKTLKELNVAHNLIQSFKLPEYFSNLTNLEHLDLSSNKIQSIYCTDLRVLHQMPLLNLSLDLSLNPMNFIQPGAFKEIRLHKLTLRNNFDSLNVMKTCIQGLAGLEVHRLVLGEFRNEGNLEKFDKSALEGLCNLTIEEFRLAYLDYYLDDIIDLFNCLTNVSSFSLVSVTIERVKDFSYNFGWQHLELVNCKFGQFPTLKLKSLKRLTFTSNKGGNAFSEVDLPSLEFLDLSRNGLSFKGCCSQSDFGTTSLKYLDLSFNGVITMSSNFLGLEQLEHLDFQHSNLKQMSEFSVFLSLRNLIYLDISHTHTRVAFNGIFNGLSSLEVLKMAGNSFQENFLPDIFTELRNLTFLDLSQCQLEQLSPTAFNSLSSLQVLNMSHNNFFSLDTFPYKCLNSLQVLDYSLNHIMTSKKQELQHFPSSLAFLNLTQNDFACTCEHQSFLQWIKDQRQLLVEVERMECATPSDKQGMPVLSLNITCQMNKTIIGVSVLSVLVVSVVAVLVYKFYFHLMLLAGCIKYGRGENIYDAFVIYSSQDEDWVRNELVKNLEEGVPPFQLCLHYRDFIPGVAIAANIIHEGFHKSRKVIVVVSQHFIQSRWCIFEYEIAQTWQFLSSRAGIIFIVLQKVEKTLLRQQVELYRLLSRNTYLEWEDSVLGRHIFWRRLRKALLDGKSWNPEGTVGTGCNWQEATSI

Toll-like receptor 7 [8] = molecular target: T2, Toll-like receptor 7 (Mus musculus, UniProt P58681); test: Antagonist activity at mouse TLR7 expressed in human PBMC cells assessed as inhibition of ssRNA stimulated IFNalpha level preincubated for 30 mins followed by stimulation and measured after 20 hrs by AlphaLISA method; assay type: cell-based
T2 sequence (P58681 whole entry): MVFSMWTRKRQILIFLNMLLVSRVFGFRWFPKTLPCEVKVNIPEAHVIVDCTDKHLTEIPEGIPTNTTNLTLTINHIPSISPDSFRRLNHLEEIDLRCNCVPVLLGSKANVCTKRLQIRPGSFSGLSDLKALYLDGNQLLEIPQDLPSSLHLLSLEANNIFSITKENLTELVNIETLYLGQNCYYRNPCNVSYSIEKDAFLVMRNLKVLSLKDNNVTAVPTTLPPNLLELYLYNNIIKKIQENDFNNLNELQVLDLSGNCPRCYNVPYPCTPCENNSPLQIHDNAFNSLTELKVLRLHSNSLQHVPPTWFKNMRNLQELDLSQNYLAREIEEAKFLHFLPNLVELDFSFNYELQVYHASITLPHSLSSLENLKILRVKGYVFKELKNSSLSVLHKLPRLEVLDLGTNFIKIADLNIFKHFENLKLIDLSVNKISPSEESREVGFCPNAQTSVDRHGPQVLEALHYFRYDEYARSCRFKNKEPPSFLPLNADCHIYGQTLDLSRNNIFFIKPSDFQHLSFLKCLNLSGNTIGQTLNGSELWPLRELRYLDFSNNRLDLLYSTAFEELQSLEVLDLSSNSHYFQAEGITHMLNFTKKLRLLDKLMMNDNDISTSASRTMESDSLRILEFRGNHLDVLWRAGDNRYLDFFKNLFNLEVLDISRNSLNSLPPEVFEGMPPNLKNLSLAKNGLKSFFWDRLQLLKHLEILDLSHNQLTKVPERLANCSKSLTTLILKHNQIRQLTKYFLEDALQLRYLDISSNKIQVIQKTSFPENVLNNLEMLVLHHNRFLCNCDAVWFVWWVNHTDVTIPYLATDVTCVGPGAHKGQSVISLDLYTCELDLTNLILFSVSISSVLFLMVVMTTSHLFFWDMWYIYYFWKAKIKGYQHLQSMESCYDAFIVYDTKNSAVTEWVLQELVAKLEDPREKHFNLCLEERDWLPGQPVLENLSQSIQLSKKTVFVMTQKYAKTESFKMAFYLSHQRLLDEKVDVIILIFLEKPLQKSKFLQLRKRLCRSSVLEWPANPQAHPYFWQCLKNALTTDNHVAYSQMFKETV

Toll-like receptor 7 [9] = molecular target: T1, Toll-like receptor 7; test: Antagonist activity at human TLR7 expressed in human whole blood assessed as inhibition of ssRNA stimulated IFNalpha level preincubated for 30 mins followed by stimulation and measured after 20 hrs by AlphaLISA method; assay type: tissue-based
[10] = Drug exposure in 129Sv mouse blood at 0.1 mg/kg, po by LC-MS/MS analysis; assay type: ADME, organism-based; settings: in vivo, read-out: Drug uptake
[11] = Drug exposure in 129Sv mouse blood at 0.3 mg/kg, po by LC-MS/MS analysis; assay type: ADME, organism-based; settings: in vivo, read-out: Drug uptake
[12] = Drug exposure in 129Sv mouse blood at 3 mg/kg, po by LC-MS/MS analysis; assay type: ADME, organism-based; settings: in vivo, read-out: Drug uptake

Sequence of Voltage-gated inwardly rectifying potassium channel KCNH2 (Q12809 whole entry): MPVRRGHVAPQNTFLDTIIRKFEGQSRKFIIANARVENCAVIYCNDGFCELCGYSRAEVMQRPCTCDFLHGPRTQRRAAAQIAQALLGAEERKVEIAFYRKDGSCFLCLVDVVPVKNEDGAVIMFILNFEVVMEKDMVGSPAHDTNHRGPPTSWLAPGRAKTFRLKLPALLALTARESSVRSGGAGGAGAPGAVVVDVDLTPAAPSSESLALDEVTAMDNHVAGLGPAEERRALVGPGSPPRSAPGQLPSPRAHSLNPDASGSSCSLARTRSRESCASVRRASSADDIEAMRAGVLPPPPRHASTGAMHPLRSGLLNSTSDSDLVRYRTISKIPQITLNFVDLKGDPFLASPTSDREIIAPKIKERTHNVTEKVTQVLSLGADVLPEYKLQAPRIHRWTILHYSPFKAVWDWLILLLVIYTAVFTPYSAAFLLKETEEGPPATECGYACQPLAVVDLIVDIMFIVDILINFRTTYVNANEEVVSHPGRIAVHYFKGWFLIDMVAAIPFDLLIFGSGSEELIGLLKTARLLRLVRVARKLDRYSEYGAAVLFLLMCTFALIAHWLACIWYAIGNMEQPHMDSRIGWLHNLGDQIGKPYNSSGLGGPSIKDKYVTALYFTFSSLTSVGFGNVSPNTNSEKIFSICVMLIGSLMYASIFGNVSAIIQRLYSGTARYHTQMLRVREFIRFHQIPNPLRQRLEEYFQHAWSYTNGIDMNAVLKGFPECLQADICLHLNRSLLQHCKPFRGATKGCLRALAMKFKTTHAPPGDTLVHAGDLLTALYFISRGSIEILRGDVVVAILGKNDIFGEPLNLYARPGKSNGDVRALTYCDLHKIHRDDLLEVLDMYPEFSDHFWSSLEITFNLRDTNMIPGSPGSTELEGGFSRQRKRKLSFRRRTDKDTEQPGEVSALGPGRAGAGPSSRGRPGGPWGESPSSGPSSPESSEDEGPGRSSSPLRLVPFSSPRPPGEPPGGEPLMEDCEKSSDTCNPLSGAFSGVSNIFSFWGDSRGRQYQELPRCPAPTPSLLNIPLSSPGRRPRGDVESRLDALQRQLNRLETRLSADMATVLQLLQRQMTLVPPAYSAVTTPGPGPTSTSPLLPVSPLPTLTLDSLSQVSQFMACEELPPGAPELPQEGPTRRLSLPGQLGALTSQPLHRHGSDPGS

pKa [1]: 6.7 | AUC [3]: 304 nM·h/mg/kg | bioavailability [4]: 38% | clearance [5]: 55 mL/min/kg | MRT [6]: 2.5 h | IC50 (Toll-like receptor 7 [7]): 7 nM | IC50 (Toll-like receptor 4): > 8000 nM | IC50 (Toll-like receptor 7 [8]): Not Active | IC50 (Toll-like receptor 7 [9]): 4.9 nM | concentration [10]: 0.4 nM | concentration [11]: 1.3 nM | concentration [12]: 110 nM
SMILES: Cc1cc(-c2cc3[nH]nc(N[C@@H]4CCNC[C@H]4F)c3cc2C2CC2)cc(C)n1
IC50 [2]: > 30000 nM
